From patent US9580390B2, “Indazole compounds as kinase inhibitors and method of treating cancer with same” (University Health Network, priority 2011, dated 2017)

Legend:
[1] = system: colon cancer cells (HCT116); test: Cancer cell line growth inhibition (SRB assay); assay type: cell-based; settings: Homo sapiens, HCT-116; HCT116 colon cancer cells, SRB assay; read-out: Cancer Cell Line GI50 Range HCT116
[2] = molecular target: T1, human PLK4 (Homo sapiens, UniProt O00444); test: PLK4 inhibition assay (indirect ELISA); assay type: biochemical; settings: 15 μM ATP
T1 construct: amino terminal GST fusion of residues 1-391 of human PLK4; made in house; host or cells: E. coli
T1 sequence (O00444 1-391): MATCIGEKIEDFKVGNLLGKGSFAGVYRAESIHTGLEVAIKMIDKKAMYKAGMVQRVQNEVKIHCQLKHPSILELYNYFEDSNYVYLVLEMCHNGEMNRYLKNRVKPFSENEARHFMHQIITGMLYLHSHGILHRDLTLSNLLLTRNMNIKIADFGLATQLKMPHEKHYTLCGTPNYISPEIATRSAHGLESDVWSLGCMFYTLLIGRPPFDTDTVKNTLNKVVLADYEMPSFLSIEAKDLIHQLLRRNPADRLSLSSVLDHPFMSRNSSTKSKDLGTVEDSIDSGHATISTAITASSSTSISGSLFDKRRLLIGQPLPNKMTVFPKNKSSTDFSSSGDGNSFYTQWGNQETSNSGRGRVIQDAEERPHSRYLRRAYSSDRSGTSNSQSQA
Method: Active PLK4 was purified from an E. coli expression system as an amino terminal GST fusion of residues 1-391 of human PLK4. The protein was purified from clarified cell extracts after induction at 15° C. overnight using glutathione sepharose, gel permeation chromatography, and ion exchange (Resource Q). The resulting protein was dephosphorylated with lambda phosphatase (NEB cat# P0753), and resolved from the phosphatase using gluthione sepharose. The dephosphorylated GST-PLK4 was stored in aliquots at −80° C. until use.
PLK4 activity was measured using an indirect ELISA detection system. Dephosphorylated GST-PLK4 (4 nM) was incubated in the presence of 15 μM ATP (Sigma cat# A7699), 50 mM HEPES-[…] pH 7.4, 10 mM MgCl2, 0.01% Brij 35 (Sigma cat# 03-3170), in a 96 well microtitre plate pre-coated with MBP (Millipore cat#30-011). The reaction was allowed to proceed for 30 minutes, followed by 5 washes of the plate with Wash Buffer (50 mM TRIS-Cl pH 7.4 and 0.2% Tween 20), and incubation for 30 minutes with a 1:3000 dilution of primary antibody (Cell Signaling cat# 9381). The plate was washed 5 times with Wash Buffer, incubated for 30 minutes in the presence of secondary antibody coupled to horse radish peroxidase (BioRad cat# 1721019, 1:3000 concentration), washed an additional 5 times with Wash Buffer, and incubated in the presence of TMB substrate (Sigma cat# T0440). The colourimetric reaction was allowed to continue for 5 minutes, followed by addition of stop solution (0.5 N sulphuric acid), and quantified by detection at 450 nm with either a monochromatic or filter based plate reader (Molecular Devices M5 or Beckman DTX880, respectively).
Compound inhibition was determined at either a fixed concentration (10 μM) or at a variable inhibitor concentration (typically 50 μM to 0.1 μM in a 10 point dose response titration). Compounds were pre-incubated in the presence of enzyme for 15 minutes prior to addition of ATP and the activity remaining quantified using the above described activity assay. The % Inhibition of a compound was determined using the following formula: % Inhibition=100×(1−(experimental value−background value)/(high activity control−background value)). The IC50 value was determined using a non-linear 4 point logistic curve fit (XLfit4, IDBS) with the formula: (A+(B/(1+((x/C)^D)))), where A=background value, B=range, C=inflection point, D=curve fit parameter.

[3] = system: ovarian cancer cells (PA-1); test: Cancer cell line growth inhibition (SRB assay); assay type: cell-based; settings: PA-1 ovarian cancer cells, SRB assay; read-out: Cancer Cell Line GI50 Range PA-1

O=C(Nc1ccc2[nH]nc(-c3ccc(OC4CCNCC4)c(Cl)c3)c2c1)C(c1ccsc1)N1CCCC1 (centres unmarked) [Example A34, N-(3-(3-chloro-4-(piperidin-4-yloxy)phenyl)-1H-indazol-5-yl)-2-(pyrrolidin-1-yl)-2-(thiophen-3-yl)acetamide]
GI50 [1]: < 100 nM
IC50 [2]: < 50 nM

O=C(Nc1ccc2[nH]nc(-c3ccc(OCCCN4CCOCC4)cc3)c2c1)C(c1ccsc1)N1CCCC1 (centres unmarked) [Example A45, N-(3-(4-(3-morpholinopropoxy)phenyl)-1H-indazol-5-yl)-2-(pyrrolidin-1-yl)-2-(thiophen-3-yl)acetamide]
GI50 [1]: < 100 nM
IC50 [2]: < 50 nM

C[C@@H]1CN(c2ccc(-c3n[nH]c4ccc(NC(=O)C(c5ccsc5)N5CCCC5)cc34)cc2)C[C@H](C)O1 (stereo partly drawn) [Example A50, N-(3-(4-((2S,6R)-2,6-dimethylmorpholino)phenyl)-1H-indazol-5-yl)-2-(pyrrolidin-1-yl)-2-(thiophen-3-yl)acetamide]
GI50 [1]: < 100 nM
IC50 [2]: < 50 nM

CN1CCC(Oc2ccc(-c3n[nH]c4ccc(NC(=O)C(c5ccsc5)N5CCCC5)cc34)cc2Cl)CC1 (centres unmarked) [Example A57]
GI50 [1]: 100 to 500 nM
IC50 [2]: < 50 nM

O=C(Nc1ccc2[nH]nc(-c3ccc(N4CCOCC4)c(F)c3)c2c1)C(c1ccsc1)N1CCCC1 (centres unmarked) [Example A60, N-(3-(3-fluoro-4-morpholinophenyl)-1H-indazol-5-yl)-2-(pyrrolidin-1-yl)-2-(thiophen-3-yl)acetamide]
GI50 [1]: 100 to 500 nM
IC50 [2]: < 50 nM

CCC(NC(=O)c1ccc2[nH]nc(-c3ccc(OC4CCN(C)CC4)cc3)c2c1)C1CCCCC1 (centres unmarked) [Example A69, N-(1-cyclohexylpropyl)-3-(4-((1-methylpiperidin-4-yl)oxy)phenyl)-1H-indazole-5-carboxamide]
GI50 [1]: 100 to 500 nM
IC50 [2]: < 50 nM

O=C(Nc1ccc2[nH]nc(-c3ccc(NC4CCOCC4)cc3)c2c1)C(c1ccsc1)N1CCCC1 (centres unmarked) [Example A71, 2-(pyrrolidin-1-yl)-N-(3-(4-((tetrahydro-2H-pyran-4-yl)amino)phenyl)-1H-indazol-5-yl)-2-(thiophen-3-yl)acetamide]
GI50 [1]: < 100 nM
IC50 [2]: < 50 nM

CN1CCC(C(NC(=O)c2ccc3[nH]nc(-c4ccc(N5CCOCC5)cc4)c3c2)c2ccccc2)CC1 (centres unmarked) [Example A85, N-((1-methylpiperidin-4-yl)(phenyl)methyl)-3-(4-morpholinophenyl)-1H-indazole-5-carboxamide]
GI50 [1]: < 100 nM
IC50 [2]: < 50 nM
GI50 [3]: < 100 nM

Cc1ccccc1CC(=O)Nc1ccc2[nH]nc(-c3ccc(OC4CCN(C)CC4)cc3)c2c1 [Example A92, N-(3-(4-(1-Methylpiperidin-4-yloxy)phenyl)-1H-indazol-5-yl)-2-o-tolylacetamide]
GI50 [1]: < 100 nM
IC50 [2]: < 50 nM
GI50 [3]: 100 to 500 nM

O=C(Nc1ccc2[nH]nc(-c3ccc(N4CCC(CO)CC4)cc3)c2c1)C(c1ccsc1)N1CCCC1 (centres unmarked) [Example A95, N-(3-(4-(4-(hydroxymethyl)piperidin-1-yl)phenyl)-1H-indazol-5-yl)-2-(pyrrolidin-1-yl)-2-(thiophen-3-yl)acetamide]
GI50 [1]: < 100 nM
IC50 [2]: < 50 nM
GI50 [3]: < 100 nM

C[C@@H]1CCCN1[C@@H](C(=O)Nc1ccc2[nH]nc(-c3ccc(N4CCOCC4)cc3)c2c1)c1ccsc1 [Example A97, (R)-2-((R)-2-methylpyrrolidin-1-yl)-N-(3-(4-morpholinophenyl)-1H-indazol-5-yl)-2-(thiophen-3-yl)acetamide]
GI50 [1]: 100 to 500 nM
IC50 [2]: < 50 nM
GI50 [3]: 100 to 500 nM

O=C(Nc1ccc2[nH]nc(-c3ccc(OC4CCN(CCF)CC4)cc3)c2c1)C(c1ccsc1)N1CCCC1 (centres unmarked) [Example A102, N-(3-(4-((1-(2-fluoroethyl)piperidin-4-yl)oxy)phenyl)-1H-indazol-5-yl)-2-(pyrrolidin-1-yl)-2-(thiophen-3-yl)acetamide]
GI50 [1]: < 100 nM
IC50 [2]: < 50 nM
GI50 [3]: < 100 nM

O=C(NC(c1ccsc1)C1CC1)c1ccc2[nH]nc(-c3ccc(OC4CCN(CCO)CC4)cc3)c2c1 (centres unmarked) [Example A117, N-(cyclopropyl(thiophen-3-yl)methyl)-3-(4-((1-(2-hydroxyethyl)piperidin-4-yl)oxy)phenyl)-1H-indazole-5-carboxamide]
GI50 [1]: < 100 nM
IC50 [2]: < 50 nM
GI50 [3]: < 100 nM

COCCN1CCC(Oc2ccc(-c3n[nH]c4ccc(C(=O)N[C@H](C)c5ccccc5F)cc34)cc2)CC1 [Example A129, (R)-N-(1-(2-fluorophenyl)ethyl)-3-(4-((1-(2-methoxyethyl)piperidin-4-yl)oxy)phenyl)-1H-indazole-5-carboxamide]
GI50 [1]: 100 to 500 nM
IC50 [2]: < 50 nM
GI50 [3]: 100 to 500 nM

CN1CCC(Oc2ccc(-c3n[nH]c4ccc(NC(=O)C(c5ccccc5)C5CCCC5)cc34)cc2)CC1 (centres unmarked) [Example A148, 2-cyclopentyl-N-(3-(4-((1-methylpiperidin-4-yl)oxy)phenyl)-1H-indazol-5-yl)-2-phenylacetamide]
GI50 [1]: 100 to 500 nM
IC50 [2]: < 50 nM
GI50 [3]: 100 to 500 nM

COCCN1CCC(Oc2ccc(-c3n[nH]c4ccc(C(=O)NC(c5ccsc5)C5CCCC5)cc34)cc2)CC1 (centres unmarked) [Example A155, N-(cyclopentyl(thiophen-3-yl)methyl)-3-(4-((1-(2-methoxyethyl)piperidin-4-yl)oxy)phenyl)-1H-indazole-5-carboxamide]
GI50 [1]: 100 to 500 nM
IC50 [2]: < 50 nM
GI50 [3]: 100 to 500 nM

COc1ccccc1C(C(=O)Nc1ccc2[nH]nc(-c3ccc(OC4CCN(C)CC4)cc3)c2c1)C1CCCC1 (centres unmarked) [Example A156, 2-cyclopentyl-2-(2-methoxyphenyl)-N-(3-(4-((1-methylpiperidin-4-yl)oxy)phenyl)-1H-indazol-5-yl)acetamide]
GI50 [1]: 100 to 500 nM
IC50 [2]: < 50 nM
GI50 [3]: > 500 nM

CN1CCC(Oc2ccc(-c3n[nH]c4ccc(NC(=O)C(c5ccccc5F)C5CCCC5)cc34)cc2)CC1 (centres unmarked) [Example A162, 2-cyclopentyl-2-(2-fluorophenyl)-N-(3-(4-((1-methylpiperidin-4-yl)oxy)phenyl)-1H-indazol-5-yl)acetamide]
GI50 [1]: 100 to 500 nM
IC50 [2]: < 50 nM
GI50 [3]: 100 to 500 nM
